In ChEMBL document CHEMBL5104096, “Undecaprenol kinase: Function, mechanism and substrate specificity of a potential antibiotic target” (Eur J Med Chem, 2021):

Each compound was assayed on Streptococcus mutans (assay: Substrate activity at 6xHis-tagged Streptococcus mutans UdpK expressed in Escherichia coli BL-21(DE3) assessed as measuring ADP level in presence of ATP/NADH by PK/LDH coupled assay). Conditions: not given.

SMILES	Activity
CC(C)=CCC/C(C)=C/CC/C(C)=C\CO	5.4 µmol/mg/min
CC(C)=CCC/C(C)=C/CC/C(C)=C/CC/C(C)=C\CC/C(C)=C\CC/C(C)=C\CC/C(C)=C\CO	8.8 µmol/mg/min
C/C(=C/CO)CC/C=C(\C)CC/C=C(\C)CC/C=C(\C)CC/C=C(\C)CNS(=O)(=O)c1ccc(N=Nc2ccc(N(C)C)cc2)cc1	5.9 µmol/mg/min
CCCCCCCCCCCCCCCCO	1.9 µmol/mg/min
C/C(=C\CO)CCCC(C)CCCC(C)CCCC(C)C (stereo unspecified)	5.6 µmol/mg/min
CC(C)=CCC/C(C)=C/CC/C(C)=C/CO	11.5 µmol/mg/min
CC(C)=CCC/C(C)=C/CC/C(C)=C/CC/C(C)=C\CC/C(C)=C\CC/C(C)=C\CC/C(C)=C\CC/C(C)=C\CO	3.8 µmol/mg/min
CC(C)=CCC/C(C)=C/CC/C(C)=C/CC/C(C)=C/CO	9.3 µmol/mg/min
C/C(=C/CO)CC/C=C(/C)CC/C=C(\C)CC/C=C(\C)CC/C=C(\C)CNS(=O)(=O)c1ccc(N=Nc2ccc(N(C)C)cc2)cc1	4 µmol/mg/min
C/C(=C/CO)CC/C=C(/C)CC/C=C(/C)CC/C=C(\C)CC/C=C(\C)CNS(=O)(=O)c1ccc(N=Nc2ccc(N(C)C)cc2)cc1	4.1 µmol/mg/min
CC(C)=CCC/C(C)=C\CC/C(C)=C\CO	21.2 µmol/mg/min
C/C(=C\CO)CC/C=C(\C)CC/C=C(\C)CC/C=C(\C)CC/C=C(\C)CNS(=O)(=O)c1ccc(N=Nc2ccc(N(C)C)cc2)cc1	3.3 µmol/mg/min
CCCCCCCCCCCO	2.1 µmol/mg/min
CC(C)=CCC/C(C)=C/CO	6.2 µmol/mg/min
CCCCCCCCCCCCCCCCCCCCO	1.3 µmol/mg/min

Results, then the compound that gave them:

Activity	SMILES
4.9 µmol/mg/min	CC(C)=CCC/C(C)=C/CC/C(C)=C/CC/C(C)=C/CC/C(C)=C/CC/C(C)=C/CC/C(C)=C/CC/C(C)=C/CC/C(C)=C/CO
3.8 µmol/mg/min	CC(C)=CCC/C(C)=C/CC/C(C)=C/CC/C(C)=C/CC/C(C)=C\CC/C(C)=C\CC/C(C)=C\CC/C(C)=C\CC/C(C)=C\CC/C(C)=C\CO
4.5 µmol/mg/min	CC(C)=CCC/C(C)=C/CC/C(C)=C/CC/C(C)=C\CC/C(C)=C\CC/C(C)=C\CC/C(C)=C\CC/C(C)=C\CC/C(C)=C\CC/C(C)=C\CC/C(C)=C\CC/C(C)=C\CCC(C)CCO (stereo unspecified)

These compounds were tested on Streptococcus mutans (assay: Substrate activity at wild-type Streptococcus mutans UdpK expressed in Escherichia coli C43(DE3) in presence of ATP/NADH by PK/LDH coupled assay). Conditions: not given.

Activity	SMILES
7.1 µmol/mg/min	C#CCNCCC/C(C)=C/CC/C(C)=C/CC/C(C)=C/CC/C(C)=C\CC/C(C)=C\CC/C(C)=C\CC/C(C)=C\CC/C(C)=C\CC/C(C)=C\CC/C(C)=C\CO
5.1 µmol/mg/min	C/C(=C/CO)CC/C=C(/C)CC/C=C(/C)CC/C=C(/C)CC/C=C(/C)CC/C=C(/C)CC/C=C(/C)CC/C=C(\C)CC/C=C(\C)CC/C=C(\C)CCCNCc1ccc(C2(C(F)(F)F)N=N2)cc1
10.8 µmol/mg/min	C/C(=C/CO)CC/C=C(/C)CC/C=C(/C)CC/C=C(/C)CC/C=C(/C)CC/C=C(/C)CC/C=C(/C)CC/C=C(\C)CC/C=C(\C)CC/C=C(\C)CCCN=[N+]=[N-]
9 µmol/mg/min	C#Cc1cccc(NCCC/C(C)=C/CC/C(C)=C/CC/C(C)=C/CC/C(C)=C\CC/C(C)=C\CC/C(C)=C\CC/C(C)=C\CC/C(C)=C\CC/C(C)=C\CC/C(C)=C\CO)c1
5.1 µmol/mg/min	C/C(=C/CO)CC/C=C(/C)CC/C=C(/C)CC/C=C(/C)CC/C=C(/C)CC/C=C(/C)CC/C=C(/C)CC/C=C(\C)CC/C=C(\C)CC/C=C(\C)CCCNC1CC(C)(C)N([O])C(C)(C)C1
6.9 µmol/mg/min	C/C(=C/CO)CC/C=C(/C)CC/C=C(/C)CC/C=C(/C)CC/C=C(/C)CC/C=C(/C)CC/C=C(/C)CC/C=C(\C)CC/C=C(\C)CC/C=C(\C)CCCNc1ccccc1C(N)=O
9.4 µmol/mg/min	C/C(=C/CO)CC/C=C(/C)CC/C=C(/C)CC/C=C(/C)CC/C=C(/C)CC/C=C(/C)CC/C=C(/C)CC/C=C(\C)CC/C=C(\C)CC/C=C(\C)CCCNc1ccc(N=[N+]=[N-])cc1
9 µmol/mg/min	C/C(=C/CO)CC/C=C(/C)CC/C=C(/C)CC/C=C(/C)CC/C=C(/C)CC/C=C(/C)CC/C=C(/C)CC/C=C(\C)CC/C=C(\C)CC/C=C(\C)CCCNc1ccc([N+](=O)[O-])cc1
6.2 µmol/mg/min	C/C(=C/CO)CC/C=C(/C)CC/C=C(/C)CC/C=C(/C)CC/C=C(/C)CC/C=C(/C)CC/C=C(/C)CC/C=C(\C)CC/C=C(\C)CC/C=C(\C)CCCNc1cc2ccc3cccc4ccc(c1)c2c34
8.1 µmol/mg/min	C/C(=C/CO)CC/C=C(/C)CC/C=C(/C)CC/C=C(/C)CC/C=C(/C)CC/C=C(/C)CC/C=C(/C)CC/C=C(\C)CC/C=C(\C)CC/C=C(\C)CCC1OC1(C)C (stereo unspecified)
11.8 µmol/mg/min	CC(=O)SCCC/C(C)=C/CC/C(C)=C/CC/C(C)=C/CC/C(C)=C\CC/C(C)=C\CC/C(C)=C\CC/C(C)=C\CC/C(C)=C\CC/C(C)=C\CC/C(C)=C\CO
3.4 µmol/mg/min	C/C(=C/CC/C(C)=C\CC/C(C)=C\CC/C(C)=C\COC1CCCCO1)CC/C=C(/C)CC/C=C(/C)CC/C=C(/C)CC/C=C(\C)CC/C=C(\C)CC/C=C(\C)CCCO (stereo unspecified)

Same assay, conditions: tested as the 2H-labelled form

Activity	SMILES
9.4 µmol/mg/min	CC(C)=CCC/C(C)=C/CC/C(C)=C/CC/C(C)=C/CC/C(C)=C\CC/C(C)=C\CC/C(C)=C\CC/C(C)=C\CC/C(C)=C\CC/C(C)=C\CC/C(C)=C\CO
